# Assays:
# [1] = target: Calcium/calmodulin-dependent protein kinase type II subunit gamma (Homo sapiens) (UniProt Q13555); assay: Selectivity interaction (KinomeScan (DiscoverX)) EUB0001049a CAMK2G; conditions: at 1 µM
# [2] = target: Vascular endothelial growth factor receptor 1 (Homo sapiens) (UniProt P17948); assay: Selectivity interaction (Kinase panel (DSF assay)) EUB0001489b FLT1
# [3] = target: Serine/threonine-protein kinase 16 (Homo sapiens, UniProt O75716); assay: Selectivity interaction (KinomeScan (DiscoverX)) EUB0000229b STK16; conditions: at 10 µM
# [4] = target: T1, Protein kinase C epsilon type (Homo sapiens) (UniProt Q02156); assay: Selectivity interaction (KinomeScan (DiscoverX)) EUB0001079a PRKCE; conditions: at 1 µM
# T1 sequence (whole entry): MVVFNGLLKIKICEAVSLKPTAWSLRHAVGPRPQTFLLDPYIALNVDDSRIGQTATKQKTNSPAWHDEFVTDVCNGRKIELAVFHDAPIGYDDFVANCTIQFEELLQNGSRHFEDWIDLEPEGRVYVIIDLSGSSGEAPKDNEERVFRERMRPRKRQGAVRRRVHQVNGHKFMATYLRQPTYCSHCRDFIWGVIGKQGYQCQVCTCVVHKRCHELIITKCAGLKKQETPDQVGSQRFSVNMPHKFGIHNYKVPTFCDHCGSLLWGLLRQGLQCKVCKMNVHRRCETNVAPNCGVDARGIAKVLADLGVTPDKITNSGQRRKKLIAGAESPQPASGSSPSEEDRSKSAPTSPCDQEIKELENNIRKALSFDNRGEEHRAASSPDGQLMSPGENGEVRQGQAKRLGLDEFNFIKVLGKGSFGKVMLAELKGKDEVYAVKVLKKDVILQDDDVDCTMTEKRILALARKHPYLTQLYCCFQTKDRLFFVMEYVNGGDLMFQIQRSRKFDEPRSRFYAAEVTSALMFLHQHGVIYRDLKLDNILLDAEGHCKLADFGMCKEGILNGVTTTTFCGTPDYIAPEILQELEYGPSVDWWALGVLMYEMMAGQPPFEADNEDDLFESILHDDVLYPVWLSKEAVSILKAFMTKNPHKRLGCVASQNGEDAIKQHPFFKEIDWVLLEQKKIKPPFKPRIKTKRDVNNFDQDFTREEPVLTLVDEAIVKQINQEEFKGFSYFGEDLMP
# [5] = target: T2, Serine/threonine-protein kinase 36 (Homo sapiens) (UniProt Q9NRP7); assay: Selectivity interaction (KinomeScan (DiscoverX)) EUB0000655a STK36; conditions: at 10 µM
# T2 sequence (whole entry): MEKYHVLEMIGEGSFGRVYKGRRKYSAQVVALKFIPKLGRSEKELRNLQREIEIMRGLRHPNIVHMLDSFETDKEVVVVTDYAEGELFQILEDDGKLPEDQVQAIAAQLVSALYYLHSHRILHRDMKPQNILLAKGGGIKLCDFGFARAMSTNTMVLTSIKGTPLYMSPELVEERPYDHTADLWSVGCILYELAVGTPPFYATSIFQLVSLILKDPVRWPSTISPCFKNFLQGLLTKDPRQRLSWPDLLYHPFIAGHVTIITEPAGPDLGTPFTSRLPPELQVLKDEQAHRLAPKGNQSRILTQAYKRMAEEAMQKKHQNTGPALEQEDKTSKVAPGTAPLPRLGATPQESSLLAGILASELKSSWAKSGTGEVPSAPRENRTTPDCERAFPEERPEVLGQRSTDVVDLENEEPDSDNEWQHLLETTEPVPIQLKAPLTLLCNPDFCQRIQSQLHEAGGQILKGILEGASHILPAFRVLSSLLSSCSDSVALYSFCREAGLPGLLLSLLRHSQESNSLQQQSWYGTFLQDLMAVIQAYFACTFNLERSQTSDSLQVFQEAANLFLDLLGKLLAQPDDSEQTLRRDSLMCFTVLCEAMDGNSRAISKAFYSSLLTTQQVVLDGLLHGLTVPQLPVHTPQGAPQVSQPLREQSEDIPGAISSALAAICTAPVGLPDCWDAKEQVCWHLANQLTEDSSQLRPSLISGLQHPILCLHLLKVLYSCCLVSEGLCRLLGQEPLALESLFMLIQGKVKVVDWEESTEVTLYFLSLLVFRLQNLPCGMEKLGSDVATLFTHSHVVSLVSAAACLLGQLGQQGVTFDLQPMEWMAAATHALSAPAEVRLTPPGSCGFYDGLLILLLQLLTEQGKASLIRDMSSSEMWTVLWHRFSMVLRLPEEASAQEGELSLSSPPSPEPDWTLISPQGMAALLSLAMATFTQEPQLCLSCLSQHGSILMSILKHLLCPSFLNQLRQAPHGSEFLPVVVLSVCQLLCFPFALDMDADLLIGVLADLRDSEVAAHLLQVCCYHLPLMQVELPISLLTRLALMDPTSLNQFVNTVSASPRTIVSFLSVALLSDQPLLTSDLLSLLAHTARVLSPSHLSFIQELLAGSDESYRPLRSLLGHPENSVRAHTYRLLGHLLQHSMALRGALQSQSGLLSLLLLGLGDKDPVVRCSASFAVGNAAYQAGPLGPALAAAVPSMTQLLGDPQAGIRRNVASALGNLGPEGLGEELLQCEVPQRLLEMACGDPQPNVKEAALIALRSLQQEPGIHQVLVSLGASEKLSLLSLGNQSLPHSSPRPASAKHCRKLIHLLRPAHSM
# [6] = target: Cyclin-dependent kinase 3 (Homo sapiens) (UniProt Q00526); assay: Selectivity interaction (KinomeScan (DiscoverX)) EUB0000618a CDK3; conditions: at 10 µM
# [7] = target: Focal adhesion kinase 1 (Homo sapiens, UniProt Q05397); assay: Selectivity interaction (KinomeScan (DiscoverX)) EUB0000618a PTK2; conditions: at 10 µM
# [8] = target: Ribosomal protein S6 kinase alpha-6 (Homo sapiens, UniProt Q9UK32); assay: Selectivity interaction (KinomeScan (DiscoverX)) EUB0000618a RPS6KA6; conditions: at 10 µM
# [9] = tested on: Mast/stem cell growth factor receptor Kit (Homo sapiens), P10721 [D816H]; assay: (§1) Selectivity interaction (KinomeScan (DiscoverX)) EUB0000666a KIT; conditions: at 10 µM
# [10] = tested on: Mast/stem cell growth factor receptor Kit (Homo sapiens), P10721 [D816V]; assay: as §1; conditions: at 10 µM
# [11] = tested on: Mast/stem cell growth factor receptor Kit (Homo sapiens), P10721 [V559D,V654A]; assay: as §1; conditions: at 10 µM
# [12] = tested on: Mast/stem cell growth factor receptor Kit (Homo sapiens), P10721 [L576P]; assay: as §1; conditions: at 10 µM
# [13] = tested on: Mast/stem cell growth factor receptor Kit (Homo sapiens), P10721 [V559D]; assay: as §1; conditions: at 10 µM
# [14] = tested on: Mast/stem cell growth factor receptor Kit (Homo sapiens), P10721 [V559D,T670I]; assay: as §1; conditions: at 10 µM
# [15] = target: Mast/stem cell growth factor receptor Kit (Homo sapiens, UniProt P10721); assay: as §1; conditions: at 10 µM
# [16] = target: Death-associated protein kinase 2 (Homo sapiens) (UniProt Q9UIK4); assay: Selectivity interaction (KinomeScan (DiscoverX)) EUB0000666a DAPK2; conditions: at 10 µM
# Sequence of Death-associated protein kinase 2 (Homo sapiens) (Q9UIK4 whole entry, looked up): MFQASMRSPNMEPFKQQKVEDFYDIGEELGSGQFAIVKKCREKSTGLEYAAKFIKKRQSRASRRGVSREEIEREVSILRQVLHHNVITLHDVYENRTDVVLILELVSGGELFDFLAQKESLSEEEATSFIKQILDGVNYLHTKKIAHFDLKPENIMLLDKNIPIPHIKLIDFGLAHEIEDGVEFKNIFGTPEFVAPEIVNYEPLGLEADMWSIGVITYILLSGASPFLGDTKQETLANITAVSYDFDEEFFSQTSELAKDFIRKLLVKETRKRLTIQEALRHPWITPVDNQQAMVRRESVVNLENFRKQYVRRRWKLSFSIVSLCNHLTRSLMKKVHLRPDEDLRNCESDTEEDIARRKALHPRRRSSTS
# Sequence of Mast/stem cell growth factor receptor Kit (Homo sapiens), P10721 [V559D,V654A] (P10721 whole entry V559D/V654A): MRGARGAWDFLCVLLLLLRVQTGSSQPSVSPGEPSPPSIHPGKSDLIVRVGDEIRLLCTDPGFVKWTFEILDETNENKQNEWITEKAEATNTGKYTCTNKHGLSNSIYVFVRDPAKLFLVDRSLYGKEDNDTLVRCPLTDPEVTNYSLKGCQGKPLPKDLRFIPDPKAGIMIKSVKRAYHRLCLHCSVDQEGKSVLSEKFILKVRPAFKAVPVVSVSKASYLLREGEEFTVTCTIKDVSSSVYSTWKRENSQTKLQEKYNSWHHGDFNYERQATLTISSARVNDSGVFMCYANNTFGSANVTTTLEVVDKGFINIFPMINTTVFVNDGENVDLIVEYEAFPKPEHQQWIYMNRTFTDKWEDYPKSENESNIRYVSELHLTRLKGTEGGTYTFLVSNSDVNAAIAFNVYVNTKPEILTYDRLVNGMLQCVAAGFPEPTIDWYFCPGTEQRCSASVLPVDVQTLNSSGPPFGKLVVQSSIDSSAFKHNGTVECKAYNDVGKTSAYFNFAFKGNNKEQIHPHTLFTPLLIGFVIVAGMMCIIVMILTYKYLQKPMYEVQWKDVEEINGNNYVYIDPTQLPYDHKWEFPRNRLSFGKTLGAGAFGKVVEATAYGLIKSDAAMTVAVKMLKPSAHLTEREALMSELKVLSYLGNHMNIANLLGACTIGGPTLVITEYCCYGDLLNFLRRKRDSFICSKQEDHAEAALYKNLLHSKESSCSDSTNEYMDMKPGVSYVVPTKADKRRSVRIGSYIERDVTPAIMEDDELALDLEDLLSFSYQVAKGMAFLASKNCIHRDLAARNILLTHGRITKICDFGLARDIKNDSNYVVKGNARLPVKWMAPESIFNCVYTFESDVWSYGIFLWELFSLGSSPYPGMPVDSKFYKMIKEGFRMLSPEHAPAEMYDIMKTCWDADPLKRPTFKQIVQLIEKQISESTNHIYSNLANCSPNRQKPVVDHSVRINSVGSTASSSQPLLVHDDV
# Sequence of Mast/stem cell growth factor receptor Kit (Homo sapiens), P10721 [D816H] (P10721 whole entry D816H): as the sequence (P10721 whole entry V559D/V654A) above, with D559V, A654V, D816H counted along it
# Sequence of Focal adhesion kinase 1 (Q05397 2-1052 limits assumed): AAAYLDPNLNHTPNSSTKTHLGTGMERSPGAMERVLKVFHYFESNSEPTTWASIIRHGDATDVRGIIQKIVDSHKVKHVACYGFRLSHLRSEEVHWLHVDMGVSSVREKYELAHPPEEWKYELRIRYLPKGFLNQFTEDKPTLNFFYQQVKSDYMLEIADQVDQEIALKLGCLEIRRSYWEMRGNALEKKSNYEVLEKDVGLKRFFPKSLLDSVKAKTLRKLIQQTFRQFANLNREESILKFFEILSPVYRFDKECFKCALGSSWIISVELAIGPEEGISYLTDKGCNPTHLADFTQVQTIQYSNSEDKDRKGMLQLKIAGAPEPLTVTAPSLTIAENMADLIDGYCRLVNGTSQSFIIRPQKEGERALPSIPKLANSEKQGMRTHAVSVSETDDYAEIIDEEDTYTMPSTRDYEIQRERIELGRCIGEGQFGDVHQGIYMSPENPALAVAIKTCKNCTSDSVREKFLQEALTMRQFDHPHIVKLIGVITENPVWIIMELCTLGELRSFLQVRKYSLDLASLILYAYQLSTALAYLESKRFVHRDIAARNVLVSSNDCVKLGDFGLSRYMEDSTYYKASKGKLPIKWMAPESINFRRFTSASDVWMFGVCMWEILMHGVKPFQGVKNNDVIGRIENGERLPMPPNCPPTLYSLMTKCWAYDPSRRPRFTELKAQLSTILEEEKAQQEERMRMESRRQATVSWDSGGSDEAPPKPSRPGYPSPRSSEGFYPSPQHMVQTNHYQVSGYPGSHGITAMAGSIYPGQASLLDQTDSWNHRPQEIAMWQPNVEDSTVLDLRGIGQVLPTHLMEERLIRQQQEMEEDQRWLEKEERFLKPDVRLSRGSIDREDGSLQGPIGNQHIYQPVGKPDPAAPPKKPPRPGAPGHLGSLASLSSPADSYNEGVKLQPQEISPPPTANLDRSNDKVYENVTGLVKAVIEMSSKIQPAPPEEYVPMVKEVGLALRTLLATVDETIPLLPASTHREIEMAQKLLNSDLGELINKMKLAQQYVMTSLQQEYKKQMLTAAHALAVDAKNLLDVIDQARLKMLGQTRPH
# Sequence of Cyclin-dependent kinase 3 (Homo sapiens) (Q00526 whole entry, looked up): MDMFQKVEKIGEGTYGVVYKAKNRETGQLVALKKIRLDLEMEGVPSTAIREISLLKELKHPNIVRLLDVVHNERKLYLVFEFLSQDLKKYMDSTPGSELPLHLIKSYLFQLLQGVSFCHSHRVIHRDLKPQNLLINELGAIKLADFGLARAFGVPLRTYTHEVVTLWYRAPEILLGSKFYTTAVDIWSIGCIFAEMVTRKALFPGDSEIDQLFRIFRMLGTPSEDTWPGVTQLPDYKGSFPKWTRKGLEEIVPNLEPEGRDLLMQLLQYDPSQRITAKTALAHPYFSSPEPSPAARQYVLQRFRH
# Sequence of Serine/threonine-protein kinase 16 (O75716 whole entry): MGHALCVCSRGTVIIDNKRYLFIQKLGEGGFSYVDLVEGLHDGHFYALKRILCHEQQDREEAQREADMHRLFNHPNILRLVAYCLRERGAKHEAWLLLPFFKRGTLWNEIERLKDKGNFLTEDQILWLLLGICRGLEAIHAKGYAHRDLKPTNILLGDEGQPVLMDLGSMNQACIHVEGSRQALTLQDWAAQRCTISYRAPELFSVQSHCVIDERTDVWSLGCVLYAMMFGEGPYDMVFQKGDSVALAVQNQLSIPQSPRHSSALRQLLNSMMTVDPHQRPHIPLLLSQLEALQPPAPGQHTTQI
# Sequence of Mast/stem cell growth factor receptor Kit (Homo sapiens), P10721 [D816V] (P10721 whole entry D816V): as the sequence (P10721 whole entry V559D/V654A) above, with D559V, A654V, D816V counted along it
smiles,measurement,setting,value
COc1cc(Nc2nc(C)cc(-c3cnn4nc(OC)ccc34)n2)cc(C(F)(F)F)c1,% of control,[1],90%
CN1CCN(C(=O)c2ccc3cc2OCCOCCNc2ccn4ncc-3c4n2)CC1,dTM,[2],2.9 K
COc1cc(N(C)c2ccnc3ccc(C(F)(F)F)cc23)cc(OC)c1OC,% binding,[3],90%
Nc1cnc(N2CCc3cc(S(=O)(=O)Nc4c(F)cc(Cl)cc4F)cc(N4CCCC4=O)c32)nc1 [TP-020n],% of control,[4],100%
CN(C)CCOc1ccc(-c2nc(-c3ccncc3)c(-c3ccc4c(c3)CC/C4=N\O)[nH]2)cc1,% of control,[5],35%
O[C@H]1CC[C@H](Nc2ncc3nc(Nc4c(F)cc(F)cc4F)n([C@H]4CCOC4)c3n2)CC1,% of control,[6],100%
same,% of control,[7],100%
same,% of control,[8],13%
O=C(NOC[C@H](O)CO)c1ccc(F)c(F)c1Nc1ccc(I)cc1F,% of control,[9],91%
same,% of control,[10],87%
same,% of control,[11],100%
same,% of control,[12],75%
same,% of control,[13],74%
same,% of control,[14],90%
same,% of control,[15],92%
same,% of control,[16],100%

# Reference: ChEMBL document CHEMBL5465560, “Selectivity Literature for EUbOPEN Chemogenomic Library” (2024)
